Experimental data: BindingDB's records for patent US20250313563 (The Broad Institute, 2025)
Several values for one entry are separate records, joined by “and”; a condition that tells them apart may be missing. Identical values can stand only once.

How the values were obtained:
[1] = target: Glycogen synthase kinase-3 alpha (Homo sapiens, UniProt P49840); assay: TR-FRET Assay
Procedure, shortened: (§1)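 TR-FRET readout: streptavidin-d2 (40 nM in added detection mix) plus Tb-anti-pSer641 Ab (2 nM in mix). Steps were 30 min compound preincubation, kinase reaction, then EDTA stop.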

[2] = target: Glycogen synthase kinase-3 beta (Homo sapiens, UniProt P49841); assay: TR-FRET Assay
Sequence of Glycogen synthase kinase-3 beta (P49841 whole entry): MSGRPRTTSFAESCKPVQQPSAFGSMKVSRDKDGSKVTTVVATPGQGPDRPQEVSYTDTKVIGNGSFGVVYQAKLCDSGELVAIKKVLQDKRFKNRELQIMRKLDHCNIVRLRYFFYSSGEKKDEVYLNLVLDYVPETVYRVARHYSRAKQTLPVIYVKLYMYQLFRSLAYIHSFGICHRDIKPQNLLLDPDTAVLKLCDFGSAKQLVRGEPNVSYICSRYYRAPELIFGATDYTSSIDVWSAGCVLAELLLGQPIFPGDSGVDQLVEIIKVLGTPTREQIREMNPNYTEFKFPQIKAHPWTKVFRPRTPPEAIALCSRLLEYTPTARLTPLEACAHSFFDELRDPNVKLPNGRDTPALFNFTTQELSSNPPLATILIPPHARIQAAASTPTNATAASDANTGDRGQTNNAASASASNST
Procedure, shortened: as §1

Sequence of Glycogen synthase kinase-3 alpha (P49840 whole entry): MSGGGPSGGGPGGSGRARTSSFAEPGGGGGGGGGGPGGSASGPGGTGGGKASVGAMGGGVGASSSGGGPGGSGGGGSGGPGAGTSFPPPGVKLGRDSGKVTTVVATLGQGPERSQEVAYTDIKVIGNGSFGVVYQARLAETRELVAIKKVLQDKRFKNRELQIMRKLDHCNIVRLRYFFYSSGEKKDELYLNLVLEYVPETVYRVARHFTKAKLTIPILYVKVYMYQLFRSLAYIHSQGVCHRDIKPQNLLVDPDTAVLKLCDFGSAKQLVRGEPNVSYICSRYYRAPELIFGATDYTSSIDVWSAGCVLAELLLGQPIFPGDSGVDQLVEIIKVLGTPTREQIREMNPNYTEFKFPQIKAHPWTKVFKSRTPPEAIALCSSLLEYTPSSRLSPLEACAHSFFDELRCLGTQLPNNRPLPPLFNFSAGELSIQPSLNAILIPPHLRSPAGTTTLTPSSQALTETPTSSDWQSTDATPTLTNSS

Row | Compound | IC50 [1] | IC50 [2]
1 | CC[C@@]1(c2cccc(C(F)(F)F)c2)C2=CN=NC2NC2=C1C(=O)N(c1ccn(C)n1)CC2 (stereo partly specified) [US20250313563, Compound 949836] | 1000 to 5000 nM | > 5000 nM
2 | CCC1(c2cccc(-c3ccnc(C)c3)c2)C2=C(N=NC2)NC2=C1C(=O)C(C)(C)C2 (stereo unspecified) [US20250313563, Compound 949840] | 100 to 1000 nM | 1000 to 5000 nM
3 | CCn1cc(N2CCC3=C(C2=O)[C@](CC)(c2cccc(C(F)(F)F)c2)C2=CN=NC2N3)cn1 (stereo partly specified) [US20250313563, Compound 949867] | < 100 nM | 100 to 1000 nM
4 | CCn1cc(N2CCC3=C(C2=O)[C@](CC)(c2cccc(C(F)(F)F)c2)C2=CN=NC2N3)cn1 (stereo partly specified) [US20250313563, Compound 949868] | 100 to 1000 nM | > 5000 nM
5 | CC[C@]1(c2cccc(-c3cnn(C)c3)c2)C2=C(CC(C)(C)NC2=O)NC2N=NC(C(F)F)=C21 (stereo partly specified) [US20250313563, Compound 949911] | 100 to 1000 nM | > 5000 nM
6 | CC[C@]1(c2cccc(-c3cc(C)nnc3C)c2)C2=C(CC(C)(C)NC2=O)NC2N=NC(C(F)(F)F)=C21 (stereo partly specified) [US20250313563, Compound 949917] | < 100 nM | < 100 nM
7 | CC[C@@]1(c2cccc(-c3cnn(C)c3)c2)C2=C(CC(C)(C)NC2=O)NC2N=NC(C(F)F)=C21 (stereo partly specified) [US20250313563, Compound 949919] | < 100 nM | < 100 nM and 100 to 1000 nM
8 | CC[C@]1(c2cccc(-c3cn(C)nc3C)c2)C2=CN=NC2NC2=C1C(=O)NC1(CCC1)C2 (stereo partly specified) [US20250313563, Compound 950055] | < 100 nM | < 100 nM and 100 to 1000 nM
9 | CC[C@@]1(c2cccc(C3=C(C)SN(C)C3)c2)C2=CN=NC2NC2=C1C(=O)NC1(CCC1)C2 (stereo partly specified) [US20250313563, Compound 950056] | 100 to 1000 nM | > 5000 nM
10 | CC[C@@]1(c2cccc(-c3ccncc3C3CC3)c2)C2=CN=NC2NC2=C1C(=O)NC(C)(C)C2 (stereo partly specified) [US20250313563, Compound 950059] | < 100 nM and 100 to 1000 nM | < 100 nM and 1000 to 5000 nM
11 | CC[C@@]1(c2cccc(-c3cnn(C4CC4(F)F)c3)c2)C2=CN=NC2NC2=C1C(=O)NC(C)(C)C2 (stereo partly specified) [US20250313563, Compound 950060] | < 100 nM | 100 to 1000 nM
12 | CC[C@@]1(c2cccc(-c3cnn(C(C)C)c3F)c2)C2=CN=NC2NC2=C1C(=O)NC(C)(C)C2 (stereo partly specified) [US20250313563, Compound 950061] | 100 to 1000 nM | > 5000 nM
13 | CC[C@@]1(c2cccc(-c3c(C)c(C)nn3C)c2)C2=CN=NC2NC2=C1C(=O)NC(C)(C)C2 (stereo partly specified) [US20250313563, Compound 950062] | < 100 nM | 100 to 1000 nM
14 | CCC1(c2cccc(Cc3ncccn3)c2)C2=CN=NC2NC2=C1C(=O)NC(C)(C)C2 (stereo unspecified) [US20250313563, Compound 950151] | < 100 nM | 1000 to 5000 nM
15 | CC[C@@]1(c2ccccc2)C2=CN=NC2NC2=C1C(=O)C[C@]1(CCNC1=O)C2 (stereo partly specified) [US20250313563, Compound 950160] | 1000 to 5000 nM | > 5000 nM
16 | CC[C@]1(c2ccccc2)C2=CN=NC2NC2=C1C(=O)C[C@]1(CCNC1=O)C2 (stereo partly specified) [US20250313563, Compound 950161] | 1000 to 5000 nM | > 5000 nM
17 | CC[C@]1(c2cccc(-c3ccnc(C)c3)c2)C2=C(CC(C)(C)NC2=O)NC2N=NC(C(F)F)=C21 (stereo partly specified) [US20250313563, Compound 950162] | 100 to 1000 nM | 100 to 1000 nM
18 | CC[C@]1(c2cccc(-c3cn(C)nc3C)c2)C2=CN=NC2NC2=C1C(=O)NC1(CCCC1)C2 (stereo partly specified) [US20250313563, Compound 950252] | < 100 nM | < 100 nM and 1000 to 5000 nM
19 | CC[C@@]1(c2cccc(-c3cnn(C(F)F)c3)c2)C2=CN=NC2NC2=C1C(=O)NC(C)(C)C2 (stereo partly specified) [US20250313563, Compound 950254] | < 100 nM | 1000 to 5000 nM

Row | Compound | IC50 [1] | IC50 [2]
20 | CC[C@@]1(c2cccc(C3=C(C)SN(C)C3)c2)C2=CN=NC2NC2=C1C(=O)NC1(CCCC1)C2 (stereo partly specified) [US20250313563, Compound 950255] | 100 to 1000 nM | > 5000 nM
21 | CC[C@]1(c2cccc(C(F)(F)F)c2)C2=C(N=NC2)NC2=C1C(=O)C(C)(C)C2 [US20250313563, Compound 950272] | < 100 nM | 100 to 1000 nM
22 | CC[C@]1(c2cccc(-c3ccnc(C)c3)c2)C2=C(N=NC2)NC2=C1C(=O)C(C)(C)C2 [US20250313563, Compound 950282] | < 100 nM | 100 to 1000 nM
23 | CC[C@@]1(c2cccc(-c3ccnc(C)c3)c2)C2=C(N=NC2)NC2=C1C(=O)C(C)(C)C2 [US20250313563, Compound 950283] | 1000 to 5000 nM | > 5000 nM
24 | CCC1(c2cccc(Oc3ncccn3)c2)C2=C(CC(C)(C)NC2=O)NC2N=NC(Cl)=C21 (stereo unspecified) [US20250313563, Compound 950318] | < 100 nM | < 100 nM
25 | CCC1(c2cccc(-c3ccncc3F)c2)C2=C(CC(C)(C)NC2=O)NC2N=NC(C(F)F)=C21 (stereo unspecified) [US20250313563, Compound 950320] | < 100 nM | < 100 nM
26 | CCC1(c2cccc(Oc3ncccn3)c2)C2=C(CC(C)(C)NC2=O)NC2N=NC(C(F)(F)F)=C21 (stereo unspecified) [US20250313563, Compound 950323] | < 100 nM | < 100 nM
27 | CC[C@@]1(c2cccc(C(F)(F)F)c2)C2=CN=NC2NC2=C1C(=O)C[C@]1(CCN(C)C1=O)C2 (stereo partly specified) [US20250313563, Compound 950325] | > 5000 nM | > 5000 nM
28 | CC[C@@]1(c2cccc(C(F)(F)F)c2)C2=CN=NC2NC2=C1C(=O)C[C@@]1(CCN(C)C1=O)C2 (stereo partly specified) [US20250313563, Compound 950326] | < 100 nM | 100 to 1000 nM
29 | CC[C@]1(c2cccc(C(F)(F)F)c2)C2=CN=NC2NC2=C1C(=O)C[C@@]1(CCNC1=O)C2 (stereo partly specified) [US20250313563, Compound 950332] | > 5000 nM | > 5000 nM
30 | CC[C@]1(c2cccc(C(F)(F)F)c2)C2=CN=NC2NC2=C1C(=O)C[C@]1(CCNC1=O)C2 (stereo partly specified) [US20250313563, Compound 950333] | < 100 nM | 100 to 1000 nM
31 | Cc1nccc([C@H]2CC[C@@]3(CC2)C2=C(N=NC2)NC2=C3C(=O)CC(C)(C)C2)c1C [US20250313563, Compound 950477] | 100 to 1000 nM | 100 to 1000 nM
32 | Cc1nccc([C@H]2CC[C@]3(CC2)C2=C(N=NC2)NC2=C3C(=O)CC(C)(C)C2)c1C [US20250313563, Compound 950478] | < 100 nM | < 100 nM
33 | CCC1(c2cccc(C(F)(F)F)c2)C2=CN=NC2NC2=C1C(=O)N(C1=CN=NC1)CC2 (stereo unspecified) [US20250313563, Compound 950479] | < 100 nM | 100 to 1000 nM
34 | CCC1(c2cccc(N(C)c3ncccn3)c2)C2=C(CC(C)(C)NC2=O)NC2N=NC(C(F)F)=C21 (stereo unspecified) [US20250313563, Compound 950484] | < 100 nM | < 100 nM
35 | CCC1(c2cccc(C(F)(F)F)c2)C2=CN=NC2NC2=C1C(=O)N(c1nn(C)cc1C)CC2 (stereo unspecified) [US20250313563, Compound 950486] | 100 to 1000 nM | 1000 to 5000 nM
36 | CC[C@]1(c2cccc(-c3cn(C)nc3C)c2)C2=C(CC(C)(C)NC2=O)NC2N=NC(C(F)F)=C21 (stereo partly specified) [US20250313563, Compound 950490] | 100 to 1000 nM | 100 to 1000 nM
37 | CC[C@]1(c2cccc(C(C)C)c2)C2=C(CC(C)(C)NC2=O)NC2N=NC(C(F)(F)F)=C21 (stereo partly specified) [US20250313563, Compound 950493] | 100 to 1000 nM | 100 to 1000 nM
38 | CC[C@@]1(c2cccc(C(C)C)c2)C2=C(CC(C)(C)NC2=O)NC2N=NC(C(F)(F)F)=C21 (stereo partly specified) [US20250313563, Compound 950494] | < 100 nM | < 100 nM and 100 to 1000 nM
